Measured values: patent US8722704B2, “Modulators of ATP-binding cassette-transporters” (Vertex Pharmaceuticals Incorporated, priority 2007, dated 2014)

Target: T1, ΔF508-CFTR (Homo sapiens, UniProt P13569, DEL508-508)
T1 construct: expressed in transfected cells
Assay: Assays for detecting and measuring ΔF508-CFTR correction properties (membrane potential optical assay; Table 3 does not say which assay)
Assay type: cell-based
Conditions: IC50/EC50 bins; NIH3T3 mouse fibroblasts stably expressing ΔF508-CFTR; read-out: Binned EC50
Description: The optical membrane potential assay utilized voltage-sensitive FRET sensors described by Gonzalez and Tsien (See Gonzalez, J. E. and R. Y. Tsien (1995) “Voltage sensing by fluorescence resonance energy transfer in single cells” Biophys J 69(4): 1272-80, and Gonzalez, J. E. and R. Y. Tsien (1997) “Improved indicators of cell membrane potential that use fluorescence resonance energy transfer” Chem Biol 4(4): 269-77) in combination with instrumentation for measuring fluorescence changes such as the Voltage/Ion Probe Reader (VIPR) (See Gonzalez, J. E., K. Oades, et al. (1999) “Cell-based assays and instrumentation for screening ion-channel targets” Drug Discov Today 4(9): 431-439).
These voltage sensitive assays are based on the change in fluorescence resonant energy transfer (FRET) between the membrane-soluble, voltage-sensitive dye, DiSBAC2(3), and a fluorescent phospholipid, CC2-DMPE, which is attached to the outer leaflet of the plasma membrane and acts as a FRET donor. Changes in membrane potential (Vm) cause the negatively charged DiSBAC2(3) to redistribute across the plasma membrane and the amount of energy transfer from CC2-DMPE changes accordingly. The changes in fluorescence emission were monitored using VIPR™ II, which is an integrated liquid handler and fluorescent detector designed to conduct cell-based screens in 96- or 384-well microtiter plates.
To identify small molecules that correct the trafficking defect associated with ΔF508-CFTR; a single-addition HTS assay format was developed. The cells were incubated in serum-free medium for 16 hrs at 37° C. in the presence or absence (negative control) of test compound. As a positive control, cells plated in 384-well plates were incubated for 16 hrs at 27° C. to “temperature-correct” ΔF508-CFTR. The cells were subsequently rinsed 3× with Krebs Ringers solution and loaded with the voltage-sensitive dyes. To activate ΔF508-CFTR, 10 μM forskolin and the CFTR potentiator, genistein (20 μM), were added along with Cl^−-free medium to each well. The addition of Cl^−-free medium promoted Cl^− efflux in response to ΔF508-CFTR activation and the resulting membrane depolarization was optically monitored using the FRET-based voltage-sensor dyes. […]
3. Solutions • Bath Solution #1: (in mM) NaCl 160, KCl 4.5, CaCl2 2, MgCl2 1, HEPES 10, pH 7.4 with NaOH. • Chloride-free bath solution: Chloride salts in Bath Solution #1 are substituted with gluconate salts. • CC2-DMPE: Prepared as a 10 mM stock solution in DMSO and stored at −20° C. • DiSBAC2(3): Prepared as a 10 mM stock in DMSO and stored at −20° C.
NIH3T3 mouse fibroblasts stably expressing ΔF508-CFTR are used for optical measurements of membrane potential. The cells are maintained at 37° C. in 5% CO2 and 90% humidity in Dulbecco's modified Eagle's medium supplemented with 2 mM glutamine, 10% fetal bovine serum, 1×NEAA, β-ME, 1×pen/strep, and 25 mM HEPES in 175 cm^2 culture flasks. For all optical assays, the cells were seeded at 30,000/well in 384-well matrigel-coated plates and cultured for 2 hrs at 37° C. before culturing at 27° C. for 24 hrs for the potentiator assay. For the correction assays, the cells are cultured at 27° C. or 37° C. with and without compounds for 16-24 hours.

T1 sequence (P13569 with tags, fused parts or gaps DEL508-508): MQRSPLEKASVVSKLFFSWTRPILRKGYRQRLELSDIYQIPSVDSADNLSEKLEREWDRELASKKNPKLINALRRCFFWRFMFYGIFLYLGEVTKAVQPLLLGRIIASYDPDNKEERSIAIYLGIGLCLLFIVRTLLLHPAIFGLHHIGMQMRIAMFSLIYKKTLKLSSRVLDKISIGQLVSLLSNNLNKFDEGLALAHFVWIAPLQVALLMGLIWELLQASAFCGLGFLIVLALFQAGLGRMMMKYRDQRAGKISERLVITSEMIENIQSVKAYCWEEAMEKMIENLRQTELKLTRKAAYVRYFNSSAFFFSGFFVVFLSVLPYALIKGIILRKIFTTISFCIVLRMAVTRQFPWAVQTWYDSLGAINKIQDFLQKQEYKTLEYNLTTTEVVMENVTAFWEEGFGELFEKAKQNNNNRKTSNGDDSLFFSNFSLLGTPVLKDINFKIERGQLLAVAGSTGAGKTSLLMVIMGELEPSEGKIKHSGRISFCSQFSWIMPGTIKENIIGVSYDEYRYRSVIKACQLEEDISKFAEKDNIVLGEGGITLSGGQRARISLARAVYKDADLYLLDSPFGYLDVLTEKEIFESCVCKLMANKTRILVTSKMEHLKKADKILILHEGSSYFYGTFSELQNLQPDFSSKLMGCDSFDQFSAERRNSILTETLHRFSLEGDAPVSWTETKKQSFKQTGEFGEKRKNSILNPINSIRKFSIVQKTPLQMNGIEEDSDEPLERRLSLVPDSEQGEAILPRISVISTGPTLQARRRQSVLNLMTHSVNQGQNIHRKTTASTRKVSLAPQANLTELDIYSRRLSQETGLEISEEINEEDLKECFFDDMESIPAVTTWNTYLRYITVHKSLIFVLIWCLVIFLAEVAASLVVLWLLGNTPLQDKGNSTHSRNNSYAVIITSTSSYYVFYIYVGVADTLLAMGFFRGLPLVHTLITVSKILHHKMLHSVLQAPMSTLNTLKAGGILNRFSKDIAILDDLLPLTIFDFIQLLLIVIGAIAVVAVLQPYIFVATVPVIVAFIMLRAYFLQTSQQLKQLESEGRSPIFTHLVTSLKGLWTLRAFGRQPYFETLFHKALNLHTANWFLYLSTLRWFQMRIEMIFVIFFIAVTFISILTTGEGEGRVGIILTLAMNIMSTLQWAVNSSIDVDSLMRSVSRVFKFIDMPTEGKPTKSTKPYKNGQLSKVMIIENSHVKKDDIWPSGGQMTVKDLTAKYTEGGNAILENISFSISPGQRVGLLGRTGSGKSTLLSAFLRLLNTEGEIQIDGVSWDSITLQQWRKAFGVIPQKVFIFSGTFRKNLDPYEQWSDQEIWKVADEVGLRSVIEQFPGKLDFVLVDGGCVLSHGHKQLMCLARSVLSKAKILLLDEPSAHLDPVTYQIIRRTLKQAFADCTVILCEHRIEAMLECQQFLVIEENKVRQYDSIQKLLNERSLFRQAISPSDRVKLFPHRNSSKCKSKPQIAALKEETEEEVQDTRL

| Structure (SMILES) | EC50 |
| --- | --- |
| CS(=O)(=O)NCc1ccc(-c2nc(NC(=O)C3(c4ccc5c(c4)OC(F)(F)O5)CC3)cc3ccccc23)cc1 [Compound 1, 1-(2,2-Difluorobenzo[d][1,3]dioxol-5-yl)-N-(1-(4-(methylsulfonamidomethyl)phenyl)isoquinolin-3-yl)cyclopropanecarboxamide] | > 5000 nM |
| O=C(Nc1cc2ccccc2c(-c2ccc3[nH]ncc3c2)n1)C1(c2ccc3c(c2)OC(F)(F)O3)CC1 [Compound 2, N-(1-(1H-Indazol-5-yl)isoquinolin-3-yl)-1-(2,2-difluorobenzo[d][1,3]dioxol-5-yl)cyclopropanecarboxamide] | ≤ 2000 nM |
| Cc1cc2cc(-c3nc(NC(=O)C4(c5ccc6c(c5)OC(F)(F)O6)CC4)cc4ccccc34)ccc2[nH]1 [Compound 7, 1-(2,2-difluorobenzo[d][1,3]dioxol-5-yl)-N-(1-(2-methyl-1H-indol-5-yl)isoquinolin-3-yl)cyclopropanecarboxamide] | ≤ 2000 nM |
| CS(=O)(=O)NCc1cccc(-c2nc(NC(=O)C3(c4ccc5c(c4)OC(F)(F)O5)CC3)cc3ccccc23)c1 [Compound 9, 1-(2,2-Difluorobenzo[d][1,3]dioxol-5-yl)-N-(1-(3-(methylsulfonamidomethyl)phenyl)isoquinolin-3-yl)cyclopropanecarboxamide] | ≤ 2000 nM |
| CC(=O)NCc1cccc(-c2nc(NC(=O)C3(c4ccc5c(c4)OC(F)(F)O5)CC3)cc3ccccc23)c1 [Compound 10, N-(1-(3-(Acetamidomethyl)phenyl)isoquinolin-3-yl)-1-(2,2-difluorobenzo[d][1,3]dioxol-5-yl)cyclopropanecarboxamide] | ≤ 2000 nM |
| COc1ccc(C2(C(=O)Nc3cc4ccccc4c(N4CCN(C)CC4)n3)CC2)cc1 [Compound 12] | ≤ 2000 nM |
| NS(=O)(=O)c1cccc(-c2nc(NC(=O)C3(c4ccc5c(c4)OC(F)(F)O5)CC3)cc3ccccc23)c1 [Compound 13, 1-(2,2-Difluorobenzo[d][1,3]dioxol-5-yl)-N-(1-(3-sulfamoylphenyl)isoquinolin-3-yl)cyclopropanecarboxamide] | ≤ 2000 nM |
| COc1ccc(C2(C(=O)Nc3cc4ccccc4c(N4CCN(c5ccccc5)C(=O)C4)n3)CC2)cc1 [Compound 14, 1-(4-methoxyphenyl)-N-(1-(3-oxo-4-phenylpiperazin-1-yl)isoquinolin-3-yl)cyclopropanecarboxamide] | ≤ 2000 nM |
| O=C1NCc2ccc(-c3nc(NC(=O)C4(c5ccc6c(c5)OC(F)(F)O6)CC4)cc4ccccc34)cc21 [Compound 15, 1-(2,2-Difluorobenzo[d][1,3]dioxol-5-yl)-N-(1-(3-oxoisoindolin-5-yl)isoquinolin-3-yl)cyclopropanecarboxamide] | ≤ 2000 nM |
| O=C(Nc1cc2ccccc2c(-c2ccc3[nH]ccc3c2)n1)C1(c2ccc3c(c2)OC(F)(F)O3)CC1 [Compound 16, N-(1-(1H-Indol-5-yl)isoquinolin-3-yl)-1-(2,2-difluorobenzo[d][1,3]dioxol-5-yl)cyclopropanecarboxamide] | ≤ 2000 nM |
| COc1ccc(C2(C(=O)Nc3cc4ccccc4c(N4CCOCC4)n3)CC2)cc1 [Compound 18, 1-(4-methoxyphenyl)-N-(1-morpholinoisoquinolin-3-yl)cyclopropanecarboxamide] | ≤ 2000 nM |
| CN(C)CCOC(=O)c1cccc(-c2nc(NC(=O)C3(c4ccc5c(c4)OC(F)(F)O5)CC3)cc3ccccc23)c1 [Compound 19, 2-(Dimethylamino)ethyl 3-(3-(1-(2,2-difluorobenzo[d][1,3]dioxol-5-yl)cyclopropanecarboxamido)isoquinolin-1-yl)benzoate] | ≤ 2000 nM |
| COc1ccc(C2(C(=O)Nc3cc4ccccc4c(N4CCC(c5ccccc5)CC4)n3)CC2)cc1 [Compound 20, 1-(4-methoxyphenyl)-N-(1-(4-phenylpiperidin-1-yl)isoquinolin-3-yl)cyclopropanecarboxamide] | ≤ 2000 nM |
| COc1ccc(C2(C(=O)Nc3cc4ccccc4c(N4CCNC(=O)C4)n3)CC2)cc1 [Compound 21] | ≤ 2000 nM |
| COc1ccc(C2(C(=O)Nc3cc4ccccc4c(N4CCCCC4)n3)CC2)cc1 [Compound 23, 1-(4-methoxyphenyl)-N-(1-(piperidin-1-yl)isoquinolin-3-yl)cyclopropanecarboxamide] | ≤ 2000 nM |
| COc1ccc(-c2nc(NC(=O)C3(c4ccc5c(c4)OC(F)(F)O5)CC3)cc3ccccc23)cn1 [Compound 25, 1-(2,2-Difluorobenzo[d][1,3]dioxol-5-yl)-N-(1-(6-methoxypyridin-3-yl)isoquinolin-3-yl)cyclopropanecarboxamide] | ≤ 2000 nM |
| CNS(=O)(=O)c1ccc(-c2nc(NC(=O)C3(c4ccc5c(c4)OC(F)(F)O5)CC3)cc3ccccc23)c(C)c1 [Compound 26, 1-(2,2-difluorobenzo[d][1,3]dioxol-5-yl)-N-(1-(2-methyl-4-(N-methylsulfamoyl)phenyl)isoquinolin-3-yl)cyclopropanecarboxamide] | ≤ 2000 nM |

Second part, the molecule after the results:

| EC50 | Structure (SMILES) |
| --- | --- |
| ≤ 2000 nM | CC(=O)NCc1ccc(-c2nc(NC(=O)C3(c4ccc5c(c4)OC(F)(F)O5)CC3)cc3ccccc23)cc1 [Compound 3, N-(1-(4-(Acetamidomethyl)phenyl)isoquinolin-3-yl)-1-(2,2-difluorobenzo[d][1,3]dioxol-5-yl)cyclopropanecarboxamide] |
| ≤ 2000 nM | O=C(Nc1cc2ccccc2c(-c2ccccc2)n1)C1(c2ccc3c(c2)OC(F)(F)O3)CC1 [Compound 4, 1-(2,2-difluorobenzo[d][1,3]dioxol-5-yl)-N-(1-phenylisoquinolin-3-yl)cyclopropanecarboxamide] |
| ≤ 2000 nM | O=C(O)c1ccc(-c2nc(NC(=O)C3(c4ccc5c(c4)OC(F)(F)O5)CC3)cc3ccccc23)cc1 [Compound 5] |
| ≤ 2000 nM | NC(=O)c1ccc(-c2nc(NC(=O)C3(c4ccc5c(c4)OC(F)(F)O5)CC3)cc3ccccc23)cc1 [Compound 6, 4-(3-(1-(2,2-Difluorobenzo[d][1,3]dioxol-5-yl)cyclopropanecarboxamido)isoquinolin-1-yl)benzamide] |
| ≤ 2000 nM | O=C(O)c1cccc(-c2nc(NC(=O)C3(c4ccc5c(c4)OC(F)(F)O5)CC3)cc3ccccc23)c1 [Compound 8] |
| ≤ 2000 nM | NS(=O)(=O)c1ccc(-c2nc(NC(=O)C3(c4ccc5c(c4)OC(F)(F)O5)CC3)cc3ccccc23)cc1 [Compound 11, 1-(2,2-Difluorobenzo[d][1,3]dioxol-5-yl)-N-(1-(4-sulfamoylphenyl)isoquinolin-3-yl)cyclopropanecarboxamide] |
| ≤ 2000 nM | O=C(Nc1cc2ccccc2c(-c2ccc(=O)[nH]c2)n1)C1(c2ccc3c(c2)OC(F)(F)O3)CC1 [Compound 17, 1-(2,2-Difluorobenzo[d][1,3]dioxol-5-yl)-N-(1-(6-oxo-1,6-dihydropyridin-3-yl)isoquinolin-3-yl)cyclopropanecarboxamide] |
| ≤ 2000 nM | NC(=O)c1cccc(-c2nc(NC(=O)C3(c4ccc5c(c4)OC(F)(F)O5)CC3)cc3ccccc23)c1 [Compound 22, 3-(3-(1-(2,2-Difluorobenzo[d][1,3]dioxol-5-yl)cyclopropanecarboxamido)isoquinolin-1-yl)benzamide] |
| ≤ 2000 nM | CN1CCN(C(=O)c2ccc(-c3nc(NC(=O)C4(c5ccc6c(c5)OC(F)(F)O6)CC4)cc4ccccc34)cc2)CC1 [Compound 24, 1-(2,2-difluorobenzo[d][1,3]dioxol-5-yl)-N-(1-(4-(4-methylpiperazine-1-carbonyl)phenyl)isoquinolin-3-yl)cyclopropanecarboxamide] |
| ≤ 2000 nM | O=C(Nc1cc2ccccc2c(-c2ccc(CO)cc2)n1)C1(c2ccc3c(c2)OC(F)(F)O3)CC1 [Compound 27, 1-(2,2-Difluorobenzo[d][1,3]dioxol-5-yl)-N-(1-(4-(hydroxymethyl)phenyl)isoquinolin-3-yl)cyclopropanecarboxamide] |
